# Patent publication US9896418B2, “Aryl ethers and uses thereof” (Peloton Therapeutics, Inc., priority 2013, dated 2018)
# What was measured:
# [1] = system: HIF-2α HIS TAG-PASB Domain; assay: HIF-2α Scintillation Proximity Assay (SPA); type: binding
# Description: The percent inhibition was determined and IC50 values were calculated using the Dotmatics system based on the following equation: % inhibition=[(high control−sample)/(high control−low control)]×100.
# 786-O-Hif-Luc cells = assay: Luciferase Assay; type: cell-based; settings: about 24 hours, read-out: Mean Luciferease EC50
# Description: A pool of infected cells were then selected against 2 μg/mL of puromycin (P8833, Sigma) for 10 days followed by limited dilution to select single clones.
# Each concentration was tested in triplicate. After about 24 hours, luciferase activity was determined using ONE-Glo Luciferase Assay Reagent (E6110, Promega) following the manufacturer's recommended procedure. EC50 were calculated by using Dotmatics software.
# human VEGFA [2] = assay: plasma human VEGF level of 786-O xenograft bearing mice; type: in vivo; settings: 10, 30 and 100 mg/kg three times at 12 hour intervals, 12 h post treatment vs prior to treatment, FIG. 5
# [3] = system: renal cell carcinoma 786-O xenograft; assay: tumor size in 786-O xenograft bearing mice, single agent; type: in vivo; settings: 3, 10, 30 and 100 mg/kg BID for 20 days, FIG. 7
# mouse kidney = assay: In vivo PK/PD study, kidney mRNA levels by qRT-PCR; set-up: species or system SCID/Biege mice; settings: FIG. 3
# Description: About 5×10^6 renal cell carcinoma 786-O tumor cells (ATCC® CRL-1932™, VHL and HIF-1α null cell line) in PBS and Matrigel (1:1 in volume) were injected subcutaneously at the right flanks of SCID/Biege mice at 6-7 weeks of age for xenograft development. When the xenografts reached about 450 mm^3 in size, the tumor bearing mice were randomly divided into 4 groups (n=4). Plasma was collected prior to treatment by retro-orbital bleeding. […] All animals were sacrificed at 12 hours post last dose. Tumor, kidney, and plasma were collected from each animal. Total RNA was extracted from the tumors and kidneys. The mRNA levels of HIF-1α, HIF-2α and their respective target genes were determined by qRT-PCR (FIG. 1).
# human VEGFA [4] = assay: In vivo PK/PD study, plasma human VEGFA by ELISA; set-up: species or system SCID/Biege mice; settings: 786-O tumor-bearing mice; 10, 30 or 100 mg/kg; FIG. 5
# [5] = system: 786-O renal cell carcinoma xenograft; assay: In vivo efficacy study, 786-O xenograft; set-up: species or system SCID/Biege mice; settings: for Tumor size Mean ± SEM: after 20 days of dosing
# 786-O cells = assay: VEGF ELISA Assay; type: cell-based
# Description: Each concentration had duplicated wells. About 20 hours later, medium was removed by suction and each well was supplied with 180 μL of growth medium. About 20 μl freshly-made 10× compound stocks were added to each well. […] The EC50 was calculated by GraphPad Prism using the dose-response-inhibition (four parameter) equation. The cell seeded plate was then subjected to CellTiter-Glo luminescence cell viability assay (Promega) by adding 50 μL of Celltiter Glo reagent into each well and shaking the plate for 8 minutes at 550 rpm (Thermomixer R, Eppendorf) then read luminescence signal in plate reader (3 second delay, 0.5 second/well integration time, Synergy 2 multi Detection Microplate reader) immediately.
Structure (SMILES),IC50 [1] [nM],EC50 (786-O-Hif-Luc cells) [nM],other results
"O=S(=O)(c1ccc(Oc2cc(F)cc(Cl)c2)c(Br)c1)C(F)(F)F [Compound 116, 2-Bromo-1-(3-chloro-5-fluorophenoxy)-4-((trifluoromethyl)sulfonyl)benzene]",150,3500,
"N#Cc1cc(F)cc(Oc2ccc(S(=O)(=O)C(F)F)c3c2CC(F)(F)[C@H]3O)c1 [Compound 15, 3-[(1S)-7-(difluoromethylsulfonyl)-2,2-difluoro-1-hydroxy-indan-4-yl]oxy-5-fluoro-benzonitrile]",,,"plasma level of human VEGFA (human VEGFA [2]): reduced; tumor size [3]: tumor size reduction and regression; Kidney EPO mRNA level (mouse kidney): reduced; Kidney PGK1 mRNA level (mouse kidney): remained unchanged; plasma level of human VEGFA (human VEGFA [4]): significant reduction; Tumor size Mean ± SEM ([5]; 3 mg/kg BID): 136.29 ± 15.77 mm^3; Tumor size Mean ± SEM ([5]; 10 mg/kg BID): 45.36 ± 2.22 mm^3; Tumor size Mean ± SEM ([5]; 30 mg/kg BID): 35.63 ± 2.26 mm^3; Tumor size Mean ± SEM ([5]; 100 mg/kg BID): 37.11 ± .6 mm^3; Tumor size change vs vehicle ([5]; 3, 10, 30 and 100 mg/kg BID, 20 days, t-Test): statistically significant reduction of tumor size"
"N#CN=S(=O)(CF)c1ccc(Oc2cc(F)cc(C#N)c2)c2c1[C@H](O)C(F)(F)C2 (single isomer, unassigned) [Example 286]",24,140,
"O=S(=O)(c1ccc(Oc2cc(F)cc(Cl)c2)c(Br)c1CO)C(F)F [Compound 74, (2-bromo-3-(3-chloro-5-fluorophenoxy)-6-((difluoromethyl)sulfonyl)phenyl)methanol]",,490,
"N#Cc1cc(F)cc(Oc2ccc(S(=N)(=O)CF)c3c2CC(F)(F)[C@H]3O)c1 (single isomer, unassigned) [Example 275]",76,260,
C[C@H]1C[C@@H](O)c2c(S(=O)(=O)C(F)F)ccc(Oc3cc(F)cc(Cl)c3)c21 (racemic) [Compound 7a],,1000,
"N#Cc1cncc(Oc2ccc(S(=N)(=O)C(F)(F)F)c3c2CC(F)(F)[C@H]3O)c1 (stereo partly drawn) [Example 315, 5-(((1S)-2,2-difluoro-1-hydroxy-7-(S-(trifluoromethyl)sulfonimidoyl)-2,3-dihydro-1H-inden-4-yl)oxy)nicotinonitrile]",23.2,110,
"N#CN=S(=O)(CF)c1ccc(Oc2cc(F)cc(C#N)c2)c2c1[C@H](O)[C@H](F)C2 (single isomer, unassigned) [Example 277]",135,74,
"N#Cc1cc(F)cc(Oc2ccc(S(=N)(=O)C(F)(F)F)c3c2CC(F)(F)[C@H]3O)c1 (single isomer, unassigned) [Example 306]",< 5,30,EC50 (786-O cells; 786-O cells): 19.2 nM
"CS(=O)(=NC#N)c1ccc(Oc2cc(F)cc(C#N)c2)c2c1[C@H](O)C(F)(F)[C@@H]2F (single isomer, unassigned) [Example 317]",< 5,12,EC50 (786-O cells; 786-O cells): 14 nM
"C=CCN=S(=O)(c1ccc(Oc2cc(F)cc(C#N)c2)c2c1[C@H](O)C(F)(F)C2)C(F)(F)F (single isomer, unassigned) [Compound 307]",370,1700,
"N#CN=S(=O)(CF)c1ccc(Oc2cc(F)cc(C#N)c2)c2c1[C@H](O)[C@H](F)C2 (single isomer, unassigned) [Example 276]",58,150,
"N#Cc1cc(F)cc(Oc2ccc(S(=N)(=O)C(F)(F)F)c3c2CC(F)(F)[C@H]3O)c1 (single isomer, unassigned) [Example 305]",< 5,13,"EC50 (786-O cells; Homo sapiens, 786-0, 786-O cells): 19.5 nM"
"O=S(=O)(c1ccc(Oc2cc(F)cc(Cl)c2)c(Cl)c1)C(F)(F)F [Compound 128, 2-Chloro-1-(3-chloro-5-fluorophenoxy)-4-((trifluoromethyl)sulfonyl)benzene]",150,3000,
"N#Cc1cc(F)cc(Oc2ccc(S(=O)(=O)C(F)(F)F)c3c2CC(F)C3N)c1 (centres unmarked) [Compound 265, 3-((1-amino-2-fluoro-7-((trifluoromethyl)sulfonyl)-2,3-dihydro-1H-inden-4-yl)oxy)-5-fluorobenzonitrile]",90,900,
"CS(=O)(=NC#N)c1ccc(Oc2cc(F)cc(C#N)c2)c2c1[C@H](O)C(F)(F)C2 (single isomer, unassigned) [Example 245]",32,61,EC50 (786-O cells; 786-O cells): 160 nM
"N#Cc1cc(F)cc(Oc2ccc(S(=N)(=O)C(F)(F)F)c3c2CCC3O)c1 (stereo not drawn) [Compound 259, 3-Fluoro-5-((1-hydroxy-7-(S-(trifluoromethyl)sulfonimidoyl)-2,3-dihydro-1H-inden-4-yl)oxy)benzonitrile]",1200,2000,
"CS(=O)(=NC#N)c1ccc(Oc2cncc(C#N)c2)c2c1[C@H](O)C(F)(F)[C@@H]2F (single isomer, unassigned) [Compound 321]",32,,
"C=CCN=S(=O)(c1ccc(Oc2cc(F)cc(C#N)c2)c2c1[C@H](O)C(F)(F)C2)C(F)(F)F (single isomer, unassigned) [Compound 308]",68,690,
"C=C1CC(O)c2c(S(C)(=O)=O)ccc(Oc3cc(F)cc(Cl)c3)c21 (centres unmarked) [Compound 280, 4-(3-chloro-5-fluorophenoxy)-3-methylene-7-(methylsulfonyl)-2,3-dihydro-1H-inden-1-ol]",3400,,
"CCS(=O)(=O)c1ccc(Oc2cc(F)cc(Cl)c2)c2c1C(O)CC2 (centres unmarked) [Compound 91, 4-(3-Chloro-5-fluorophenoxy)-7-(ethylsulfonyl)-2,3-dihydro-1H-inden-1-ol]",280,,
"Cc1c(S(C)(=O)=O)ccc(Oc2cc(F)cc(C#N)c2)c1C#N [Compound 51, 6-(3-Cyano-5-fluorophenoxy)-2-methyl-3-(methylsulfonyl)benzonitrile]",2000,,
